This is an account of results in US20160376240A1, “6 Phenyl or 6 Pyridin 3 YL Indazole Derivatives and Methods of Use” (ABBVIE INC., priority 2014, published 2016).

The assay deals with T1, TrkA (Homo sapiens, UniProt P04629).
T1 construct: purchased Invitrogen PV3144
The assay can be described thus: TrkA kinase inhibition, HTRF assay. The assay is classed as biochemical. To be noted: LCK peptide substrate 125 nM, TrkA 2-10 nM pre-incubated with ATP 200 μM. The procedure: TrkA, TrkB, and TrkC enzymes were obtained from Invitrogen (as catalog numbers PV3144, PV3616, and PV3617, respectively). The ability of a compound to inhibit the enzymatic activity of the TrkA, TrkB, and TrkC enzymes was determined in separate assays. Enzyme activity was measured in an HTRF® (homogeneous time resolved fluorescence) assay, which detects enzymatic phosphorylation of a biotinylated synthetic peptide substrate (an LCK peptide analog, biotin-ahx-GAEEEIYAAFFA, from Genemed Synthesis). Phosphorylation is assessed by HTRF® in the presence of an anti-phosphotyrosine antibody conjugated to Eu^3+ cryptate (Cisbio) as donor fluorophore, and streptavidin conjugated to allophycocyanin (ProZyme) as acceptor fluorophore. The HTRF® signal was detected at two different wavelengths (620 nm and 665 nm) which were used to calculate the fluorescence ratio.
Each enzyme was titrated to a concentration optimized to ensure accurate measurement of the initial reaction rate. To allow the Trk enzymes to undergo activation and auto-phosphorylation, a 20 minute pre-incubation with ATP was carried out (at twice the final targeted enzyme and ATP concentration) prior to addition of test compound and the peptide substrate.
TrkA in vitro assays were performed by pre-incubating TrkA (2-10 nM) with ATP (200 μM) for 20 minutes at ambient temperature in 50 mM HEPES pH 7.4, 10 mM MgCl2, 2 mM MnCl2, 100 μM Na3VO4, 1 mM dithiothreitol, 0.01% BSA (bovine serum albumin). Then, to the activated Trk enzyme mixture was added the test compound in 2% dimethyl sulfoxide. After 10 minutes, the peptide substrate (125 nM) was added. After 1 hour, enzyme reactions were terminated by addition of equal reaction volumes of detection/stop reagent (containing 0.2 μg/mL anti-phosphotyrosine monoclonal antibody labeled with europium from Cisbio (catalog# PT66-K), and 4 μg/mL PhycoLink® Streptavidin-Allophycocyanin conjugate from ProZyme (catalog# PJ25S) in 60 mM EDTA in 40 mM HEPES pH 7.4, 480 mM KF, 0.01% Tween® 20 and 0.1% BSA bovine serum albumin) Reaction plates were stored at 4° C. overnight before reading the fluorescence ratio signal on a PerkinElmer EnVision™ fluorescence detector. Individual reaction wells were stopped at time points to obtain reaction rates. The test inhibitor compounds were assayed in duplicate, at half-log serial dilutions over a range of concentrations (e.g. starting at 50 μM or 5 μM as the high compound concentration). The percent Trk enzyme inhibition was calculated from the initial rates of the inhibited reactions relative to the uninhibited control. IC50 values were calculated by fitting the inhibition percent to the concentration of inhibitor [I] in the assay in equation 1 below, to solve for the IC50.
Inhibition %=100[I]/([I]+[IC50]) equation 1

T1 sequence (P04629 33-796): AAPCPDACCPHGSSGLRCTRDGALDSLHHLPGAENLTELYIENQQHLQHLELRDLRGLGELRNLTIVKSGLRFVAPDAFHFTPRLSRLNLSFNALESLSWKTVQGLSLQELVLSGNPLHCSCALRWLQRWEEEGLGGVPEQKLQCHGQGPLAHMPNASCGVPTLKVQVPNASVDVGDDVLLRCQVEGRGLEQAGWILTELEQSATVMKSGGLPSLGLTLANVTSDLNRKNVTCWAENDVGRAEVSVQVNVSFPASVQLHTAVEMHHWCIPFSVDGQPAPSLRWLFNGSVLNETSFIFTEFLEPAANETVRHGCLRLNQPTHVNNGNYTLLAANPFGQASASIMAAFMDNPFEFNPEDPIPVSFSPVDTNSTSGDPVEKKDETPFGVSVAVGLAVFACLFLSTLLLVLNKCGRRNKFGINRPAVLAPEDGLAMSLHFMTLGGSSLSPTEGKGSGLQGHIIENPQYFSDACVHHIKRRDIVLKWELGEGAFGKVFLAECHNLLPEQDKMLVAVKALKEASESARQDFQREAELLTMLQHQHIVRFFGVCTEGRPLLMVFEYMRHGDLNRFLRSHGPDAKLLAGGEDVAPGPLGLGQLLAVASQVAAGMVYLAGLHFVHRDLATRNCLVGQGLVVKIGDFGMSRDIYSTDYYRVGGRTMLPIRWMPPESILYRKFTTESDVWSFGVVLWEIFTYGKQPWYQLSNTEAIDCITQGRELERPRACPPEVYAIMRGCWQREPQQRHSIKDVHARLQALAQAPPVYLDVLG

Turning to `CN1CCC(N2CCN(c3cc(-c4cc(OC5CCOCC5)c5c(N)n[nH]c5c4)ccc3C(N)=O)CC2)CC1` [Example 9, 4-[3-amino-4-(tetrahydro-2H-pyran-4-yloxy)-1H-indazol-6-yl]-2-[4-(1-methylpiperidin-4-yl)piperazin-1-yl]benzamide], half-maximal inhibition (IC50) was put at 3460 nM. That is a single-digit micromolar value.

On to “4-{3-amino-4-[(1,1,1-trifluoropropan-2-yl)oxy]-1H-indazol-6-yl}-2-(4-cyclopentylpiperazin-1-yl)benzamide [Example 102]”, for which half-maximal inhibition (IC50) was put at 19.2 nM. This IC50 is about 180-fold lower than that of the compound before.

Compound `CC(=O)Nc1ccc(-c2cc(OC3CCOCC3)c3c(C)n[nH]c3c2)cc1OCCNC(=O)OC(C)C` [Example 147, isopropyl (2-{2-acetamido-5-[3-methyl-4-(tetrahydro-2H-pyran-4-yloxy)-1H-indazol-6-yl]phenoxy}ethyl)carbamate] returned an IC50 of 30.9 nM.

`CNC(=O)c1ccc(-c2cc(OC3CCOCC3)c3c(N)n[nH]c3c2)cc1N1CCN(C(=O)OC(C)C)CC1` [Example 114, isopropyl 4-{5-[3-amino-4-(tetrahydro-2H-pyran-4-yloxy)-1H-indazol-6-yl]-2-(methylcarbamoyl)phenyl}piperazine-1-carboxylate] registered a half-inhibitory concentration (IC50) of 80.8 nM.

For `CC(=O)c1ccc(-c2cc(OC3CCOCC3)c3c(N)n[nH]c3c2)cc1N1CCN(c2ccccc2)CC1` [Example 13, 1-{4-[3-amino-4-(tetrahydro-2H-pyran-4-yloxy)-1H-indazol-6-yl]-2-(4-phenylpiperazin-1-yl)phenyl}ethanone], the IC50 came to 62.9 nM.

In turn, `CNC(=O)c1ccc(-c2cc(O[C@@H](C)C(F)(F)F)c3c(N)n[nH]c3c2)cc1N1CCN(c2cccnc2)CC1` [Example 41, 4-(3-amino-4-{[(2S)-1,1,1-trifluoropropan-2-yl]oxy}-1H-indazol-6-yl)-N-methyl-2-[4-(pyridin-3-yl)piperazin-1-yl]benzamide] registered an IC50 of 29.2 nM. Compared with the last compound, the IC50 is about 2.2-fold lower.

For `NC(=O)c1ccc(-c2cc(OC3CCOCC3)c3c(N)n[nH]c3c2)cc1N1CCN(CCOCCO)CC1` [Example 11, 4-[3-amino-4-(tetrahydro-2H-pyran-4-yloxy)-1H-indazol-6-yl]-2-{4-[2-(2-hydroxyethoxy)ethyl]piperazin-1-yl}benzamide], the IC50 was 208 nM.

Compound `CNC(=O)c1ccc(-c2cc(OC3CCCC3)c3c(C)n[nH]c3c2)cc1N1CCN(C(=O)OCC(C)C)CC1` [Example 128, isobutyl 4-{5-[4-(cyclopentyloxy)-3-methyl-1H-indazol-6-yl]-2-(methylcarbamoyl)phenyl}piperazine-1-carboxylate] displayed an IC50 of 214 nM.

`CC(Oc1cc(-c2ccc(C(=O)NC3CC3)c(N3CCN(C4CC4)CC3)c2)cc2[nH]nc(N)c12)C(F)(F)F` (centres unmarked) [Example 27, 4-{3-amino-4-[(1,1,1-trifluoropropan-2-yl)oxy]-1H-indazol-6-yl}-N-cyclopropyl-2-(4-cyclopropylpiperazin-1-yl)benzamide] yielded an IC50 of 251 nM.

On to `CNC(=O)c1ccc(-c2cc(O[C@H](C)C(F)(F)F)c3c(N)n[nH]c3c2)cc1N1CCN(C2CCC2)CC1` [Example 50, 4-(3-amino-4-{[(2R)-1,1,1-trifluoropropan-2-yl]oxy}-1H-indazol-6-yl)-2-(4-cyclobutylpiperazin-1-yl)-N-methylbenzamide], for which the IC50 was 530 nM. Against the preceding compound, the IC50 is about 2.1-fold higher.

In turn, `NC(=O)c1ccc(-c2cc(O[C@H]3CCOC3)c3c(N)n[nH]c3c2)cc1N1CCN(C2CC2)CC1` [Example 65, 4-{3-amino-4-[(3S)-tetrahydrofuran-3-yloxy]-1H-indazol-6-yl}-2-(4-cyclopropylpiperazin-1-yl)benzamide] returned a 50% inhibitory concentration (IC50) of 173 nM. Against the preceding compound, the IC50 is about 3.1-fold lower.

For `NC(=O)c1ccc(-c2cc(O[C@@H]3CCOC3)c3c(N)n[nH]c3c2)cc1N1CCN(c2cccnc2)CC1` [Example 68, 4-{3-amino-4-[(3R)-tetrahydrofuran-3-yloxy]-1H-indazol-6-yl}-2-[4-(pyridin-3-yl)piperazin-1-yl]benzamide], the IC50 was 8.06 nM.

`CNC(=O)c1ccc(-c2cc(O[C@@H](C)C(F)(F)F)c3c(N)n[nH]c3c2)cc1N1CCN(C(=O)C(C)(C)C)CC1` [Example 45, 4-(3-amino-4-{[(2S)-1,1,1-trifluoropropan-2-yl]oxy}-1H-indazol-6-yl)-2-[4-(2,2-dimethylpropanoyl)piperazin-1-yl]-N-methylbenzamide] gave an IC50 of 300 nM.

`CC(Oc1cc(-c2ccc(C(=O)NC3CC3)c(N3CCN(c4cccnc4)CC3)c2)cc2[nH]nc(N)c12)C(F)(F)F` (centres unmarked) [Example 28, 4-{3-amino-4-[(1,1,1-trifluoropropan-2-yl)oxy]-1H-indazol-6-yl}-N-cyclopropyl-2-[4-(pyridin-3-yl)piperazin-1-yl]benzamide] returned an IC50 of 41 nM.

For `NC(=O)c1ccc(-c2ccc3c(N)n[nH]c3c2)cc1N1CCN(Cc2ccccc2)CC1` [Example 87, 4-(3-amino-1H-indazol-6-yl)-2-(4-benzylpiperazin-1-yl)benzamide], the IC50 was 43.3 nM.

`CC(=O)Nc1ccc(-c2cc(OC3CCOCC3)c3c(C)n[nH]c3c2)cc1N1CCN(C(=O)C2CCC2)CC1` [Example 144, N-{2-[4-(cyclobutylcarbonyl)piperazin-1-yl]-4-[3-methyl-4-(tetrahydro-2H-pyran-4-yloxy)-1H-indazol-6-yl]phenyl}acetamide] showed an IC50 of 25.4 nM.

Turning to `CC(=O)C(=O)Nc1ccc(-c2cc(OC3CCOCC3)c3c(C)n[nH]c3c2)cc1N1CCN(C2CCCCC2)CC1` [Example 133, N-{2-(4-cyclohexylpiperazin-1-yl)-4-[3-methyl-4-(tetrahydro-2H-pyran-4-yloxy)-1H-indazol-6-yl]phenyl}-2-oxopropanamide], the half-maximal inhibitory concentration (IC50) was 15.9 nM.

Compound `Cc1n[nH]c2cc(-c3ccc(C(N)=O)c(N4CCN(CC(F)(F)F)CC4)c3)cc(OC3CCOCC3)c12` [Example 157, 4-[3-methyl-4-(tetrahydro-2H-pyran-4-yloxy)-1H-indazol-6-yl]-2-[4-(2,2,2-trifluoroethyl)piperazin-1-yl]benzamide] yielded a half-maximal inhibitory concentration (IC50) of 22.7 nM. The IC50 values of the last two compounds are within 1.5-fold of each other.

The compound `CC(Oc1cc(-c2ccc(C(=O)NC3CC3)c(N3CCN(c4ccccc4)CC3)c2)cc2[nH]nc(N)c12)C(F)(F)F` (centres unmarked) [Example 26, 4-{3-amino-4-[(1,1,1-trifluoropropan-2-yl)oxy]-1H-indazol-6-yl}-N-cyclopropyl-2-(4-phenylpiperazin-1-yl)benzamide] yielded an IC50 of 58.1 nM.

As to `CC(=O)Nc1ccc(-c2cc(OC3CCOCC3)c3c(C)n[nH]c3c2)cc1N1CCN(Cc2ccc(Cl)o2)CC1` [Example 150, N-(2-{4-[(5-chloro-2-furyl)methyl]piperazin-1-yl}-4-[3-methyl-4-(tetrahydro-2H-pyran-4-yloxy)-1H-indazol-6-yl]phenyl)acetamide], the concentration for half-maximal inhibition (IC50) is 74.5 nM. The IC50 values of the last two compounds are within 1.5-fold of each other.

The compound `CNC(=O)c1ccc(-c2cc(OC3CCOCC3)c3cn[nH]c3c2)cc1N1CCN(C2CCCCC2)CC1` [Example 116, 2-(4-cyclohexylpiperazin-1-yl)-N-methyl-4-[4-(tetrahydro-2H-pyran-4-yloxy)-1H-indazol-6-yl]benzamide] showed an IC50 of 77.8 nM.

`NC(=O)c1ccc(-c2ccc3c(N)n[nH]c3c2)cc1N1CCN(c2ccccc2)CC1` [Example 84, 4-(3-amino-1H-indazol-6-yl)-2-(4-phenylpiperazin-1-yl)benzamide] gave an IC50 of 24.3 nM.

The compound `CNC(=O)c1ccc(-c2cc(OC3CCCC3)c3c(C)n[nH]c3c2)cc1N1CCN(C2CCCCC2)CC1` [Example 121, 2-(4-cyclohexylpiperazin-1-yl)-4-[4-(cyclopentyloxy)-3-methyl-1H-indazol-6-yl]-N-methylbenzamide] showed a half-inhibitory concentration (IC50) of 17.3 nM. This IC50 and that of the compound before are within 1.5-fold of each other.

`CC(Oc1cc(-c2ccc(C(N)=O)c(N3CCN(C(=O)C4CC4)CC3)c2)cc2[nH]nc(N)c12)C(F)(F)F` (centres unmarked) [Example 103, 4-{3-amino-4-[(1,1,1-trifluoropropan-2-yl)oxy]-1H-indazol-6-yl}-2-[4-(cyclopropylcarbonyl)piperazin-1-yl]benzamide] gave an IC50 of 19.4 nM.

`CC(=O)Nc1ccc(-c2cc(OC3CCCC3)c3c(C)n[nH]c3c2)cc1NCCOc1ccccc1` [Example 127, N-{4-[4-(cyclopentyloxy)-3-methyl-1H-indazol-6-yl]-2-[(2-phenoxyethyl)amino]phenyl}acetamide] displayed an IC50 of 49 nM.

Take `CNC(=O)c1ccc(-c2cc(OC3CCOCC3)c3c(C)n[nH]c3c2)cc1OCCOC1CCCCC1` [Example 126, 2-[2-(cyclohexyloxy)ethoxy]-N-methyl-4-[3-methyl-4-(tetrahydro-2H-pyran-4-yloxy)-1H-indazol-6-yl]benzamide]: 4.74 nM corresponded to half-maximal inhibition (IC50). This IC50 is about 10-fold lower than that of the compound before.
